# From patent US4232121A, “Process for selecting methine dyes which inhibit cell growth” (Eastman Kodak Company, priority 1978, dated 1980)
# Where two headings read alike, the source gives them in different places.
# Columns and labels:
# [1] = test system: Bacillus pumilus strain K-1; test: Inhibition of bacterial growth, filter paper on inoculated agar plates; assay type: cell-based; conditions: for zone of inhibition at 1000 µM: Bacillus pumilus, read-out: Diameter of Inhibition
# Method: Nutrient broth was prepared by mixing 8 grams of BACTO dehydrated nutrient broth per liter of distilled water. […] Samples of the nutrient broth were then inoculated with Bacillus pumilus strain K-1 culture. […]
# Nutrient agar was prepared by mixing 23 grams of BACTO nutrient agar per liter of distilled water. The nutrient agar was sterilized in the same way as the nutrient broth. After it has cooled to about 45° C. 250 ml of the nutrient agar solution was aeseptically inoculated with 5 ml of the Bacillus pumilus, K-1 culture prepared in (A), above. Plates of the inoculated nutrient agar were then poured and allowed to harden.
# […] To minimize possible photocatalyzed reactions of the dyes, all preparations were performed under yellow lights and all incubations were performed in the dark.
# Schleider and Schuell #740-E filter paper (12.7 mm diameter) was dipped in the dye solution, touched to the side of the beaker to removed excess dye, and placed in the center of the inoculated agar plates (prepared in (B) above). […] The plates were then examined to determine if bacterial growth had been affected by the dye-containing filter paper. […]
# Control plates were prepared in which the filter paper contained methanol or a 0.2 molar aqueous solution of phenol. […]
# [2] = not told
# Method: If a published reduction potential is not available, suitable techniques for measuring reduction potential are available and can be used. […] This technique involves measurement at 20° C., of an approximately 10^-4 molar solution of the dye in an electrolyte, such as methanol which is 0.05 molar in lithium chloride, using a dropping mercury electrode. The potential values are reported by reference to a silver-silver chloride electrode in a saturated solution of potassium chloride at 20° C.
# Bacillus pumilus (K-1) = test system: Bacillus pumilus (K-1)
# Method: This can be accomplished by contacting a given concentration of the dye with the cells, removing the cells from the dye solution and then comparing the optical density (at λmax) of the remaining dye solution with a control containing the original concentration of the dye. The percentage decrease in optical density indicates the percentage of dye which has been bound to the cells.
# The culture was collected by centrifugation at 5,000×g. for 10 minutes, and the resultant pellet was washed several times in cold 0.05 M potassium phosphate buffer, pH 7.0. The pellet was resuspended in the buffer solution to a final optical density of 1.0 at 620 nm as measured with a Bausch and Lomb Spectronic 20.
# One-tenth ml of dye solution (1 mg/ml in methanol) was added to a tube containing 5 ml of cell suspension described above and a control tube containing 0.05 M potassium phosphate buffer, pH 7.0. All tubes were well agitated using a Vari-Whirl Mixer (Will Scientific Co.) and then centrifuged at 10,000×g. for 10 minutes.
# The percent binding of dye to the cells for each dye, was determined by comparison of the density at λmax of the control supernatant sample with the density at λmax of the supernatant of the cell sample.
# [3] = K1, 72 h, Tables V and VI, 10^-3 molar, three days
# [4] = Tables V and VI, 10^-3 molar, three days
structure (smiles),measurement,setting,value
"CCN1C(=CC=Cc2oc3cccc(OC(C)=O)c3[n+]2CC)Oc2cccc(OC(C)=O)c21 [7,4,4'-diacetoxy]",zone of inhibition at 1000 µM,[1]; [3],15 mm
"CCN1C(=CC=Cc2oc3cccc(O)c3[n+]2CC)Oc2cccc(O)c21 [7,4,4'-dihydroxy]",zone of inhibition at 1000 µM,[1]; [3],13 mm
"CCN1C(=CC=Cc2oc3ccc(NC(C)=O)cc3[n+]2CC)Oc2ccc(NC(C)=O)cc21 [7,5,5'-acetamido]",Diameter of Inhibition,[1]; [4],None
"CCN1C(=CC=Cc2oc3ccc(OC(C)=O)cc3[n+]2CC)Oc2ccc(OC(C)=O)cc21 [7,5,5'-diacetoxy]",zone of inhibition at 1000 µM,[1]; [3],30.5 mm
same,ER,[2],-1.18
"CCN1C(=CC=Cc2oc3ccc(Br)cc3[n+]2CC)Oc2ccc(Br)cc21 [7,5,5'-dibromo]",zone of inhibition at 1000 µM,[1]; [3],22.5 mm
"CN1C(=CC=Cc2oc3ccc(C(=O)O)cc3[n+]2C)Oc2ccc(C(=O)O)cc21 [7,5,5'-dicarboxy-N,N'-methyl]",Diameter of Inhibition,[1]; [4],None
"CCN1C(=CC=Cc2oc3ccc(Cl)cc3[n+]2CC)Oc2ccc(Cl)cc21 [7,5,5'-dichloro]",zone of inhibition at 1000 µM,[1]; [3],26.5 mm
"CN1C(=CC=Cc2oc3ccc(C#N)cc3[n+]2C)Oc2ccc(C#N)cc21 [7,5,5'-dicyano-N,N'-methyl]",Diameter of Inhibition,[1]; [4],None
same,ER,[2],-.99
"CCOc1ccc2c(c1)N(CC)C(=CC=Cc1oc3ccc(OCC)cc3[n+]1CC)O2 [7,5,5'-diethoxy]",zone of inhibition at 1000 µM,[1]; [3],14 mm
"CCc1ccc2c(c1)N(CC)C(=CC=Cc1oc3ccc(CC)cc3[n+]1CC)O2 [7,5,5'-diethyl]",zone of inhibition at 1000 µM,[1]; [3],23 mm
"CCN1C(=CC=Cc2oc3ccc(O)cc3[n+]2CC)Oc2ccc(O)cc21 [7,5,5'-dihydroxy]",zone of inhibition at 1000 µM,[1]; [3],14 mm
"CCN1C(=CC=Cc2oc3ccc(OC)cc3[n+]2CC)Oc2ccc(OC)cc21 [7,5,5'-dimethoxy]",zone of inhibition at 1000 µM,[1]; [3],23.5 mm
"CN1C(=CC=Cc2oc3ccc([N+](=O)[O-])cc3[n+]2C)Oc2ccc([N+](=O)[O-])cc21 [7,5,5'-dinitro-N,N'-methyl]",Diameter of Inhibition,[1]; [4],None
"CCN1C(=CC=Cc2oc3ccc(-c4ccccc4)cc3[n+]2CC)Oc2ccc(-c3ccccc3)cc21 [7,5,5'-diphenyl]",Diameter of Inhibition,[1]; [4],None
"CCN1C(=CC=Cc2oc3ccc(S(=O)(=O)[O-])cc3[n+]2CC)Oc2ccc(S(=O)(=O)O)cc21 [7,5,5'-disulfo]",Diameter of Inhibition,[1]; [4],None
same,ER,[2],-1.27
"CCOc1ccc2c(c1)OC(=CC=Cc1oc3cc(OCC)ccc3[n+]1CC)N2CC [7,6,6'-diethoxy]",zone of inhibition at 1000 µM,[1]; [3],16 mm
"CN1C(=CC=Cc2oc3cc([N+](=O)[O-])ccc3[n+]2C)Oc2cc([N+](=O)[O-])ccc21 [7,6,6'-dinitro-N,N'-methyl]",Diameter of Inhibition,[1]; [4],None
"CCN1C(=CC=Cc2oc3cc(-c4ccccc4)ccc3[n+]2CC)Oc2cc(-c3ccccc3)ccc21 [7,6,6'-diphenyl]",Diameter of Inhibition,[1]; [4],None
"CCN1C(=CC=Cc2oc3c(-c4ccccc4)cccc3[n+]2CC)Oc2c(-c3ccccc3)cccc21 [7,7,7'-diphenyl]",Diameter of Inhibition,[1]; [4],None
"CCN1C(=CC=Cc2sc3cccc(OC)c3[n+]2CC)Sc2cccc(OC)c21 [17,4,4'-dimethoxy]",zone of inhibition at 1000 µM,[1]; [3],17.5 mm
"CCN1C(=CC=Cc2sc3cc(OC)c(OC)cc3[n+]2CC)Sc2cc(OC)c(OC)cc21 [17,5,5',6,6'-tetramethoxy]",Diameter of Inhibition,[1]; [4],None
"CCN1C(=CC=Cc2sc3ccc(OC(C)=O)cc3[n+]2CC)Sc2ccc(OC(C)=O)cc21 [17,5,5'-diacetoxy]",zone of inhibition at 1000 µM,[1]; [3],15 mm
"CCN1C(=CC=Cc2sc3ccc(Br)cc3[n+]2CC)Sc2ccc(Br)cc21 [17,5,5'-dibromo]",zone of inhibition at 1000 µM,[1]; [3],13.5 mm
"CCN1C(=CC=Cc2sc3ccc(OC)cc3[n+]2CC)Sc2ccc(OC)cc21 [17,5,5'-dimethoxy]",zone of inhibition at 1000 µM,[1]; [3],14.5 mm
"CCN1C(=CC=Cc2sc3ccc(C)cc3[n+]2CC)Sc2ccc(C)cc21 [17,5,5'-dimethyl]",zone of inhibition at 1000 µM,[1]; [3],14 mm
"CCN1C(=CC=Cc2sc3cc(NC(C)=O)ccc3[n+]2CC)Sc2cc(NC(C)=O)ccc21 [17,6,6'-diacetamido]",Diameter of Inhibition,[1]; [4],None
"CCN1C(=CC=Cc2sc3cc(OC(C)=O)ccc3[n+]2CC)Sc2cc(OC(C)=O)ccc21 [17,6,6'-diacetoxy]",zone of inhibition at 1000 µM,[1]; [3],17 mm
"CN1C(=CC=Cc2sc3cc(N)ccc3[n+]2C)Sc2cc(N)ccc21 [17,6,6'-diamino-N,N'-dimethyl]",Diameter of Inhibition,[1]; [4],None
"CCN1C(=CC=Cc2sc3cc(Br)ccc3[n+]2CC)Sc2cc(Br)ccc21 [17,6,6'-dibromo]",Diameter of Inhibition,[1]; [4],None
same,ER,[2],-.88
"CCN1C(=CC=Cc2sc3cc(Cl)ccc3[n+]2CC)Sc2cc(Cl)ccc21 [17,6,6'-dichloro]",zone of inhibition at 1000 µM,[1]; [3],14 mm
same,ER,[2],-.87
"CN1C(=CC=Cc2sc3cc(C#N)ccc3[n+]2C)Sc2cc(C#N)ccc21 [17,6,6'-dicyano-N,N'-dimethyl]",Diameter of Inhibition,[1]; [4],None
"CCOc1ccc2c(c1)SC(=CC=Cc1sc3cc(OCC)ccc3[n+]1CC)N2CC [17,6,6'-diethoxy]",zone of inhibition at 1000 µM,[1]; [3],15 mm
"CCN1C(=CC=Cc2sc3cc(F)ccc3[n+]2CC)Sc2cc(F)ccc21 [17,6,6'-difluoro]",zone of inhibition at 1000 µM,[1]; [3],18 mm
same,ER,[2],-1.06
"CCN1C(=CC=Cc2sc3cc(O)ccc3[n+]2CC)Sc2cc(O)ccc21 [17,6,6'-dihydroxy]",zone of inhibition at 1000 µM,[1]; [3],15.5 mm
"CCN1C(=CC=Cc2sc3cc(OC)ccc3[n+]2CC)Sc2cc(OC)ccc21 [17,6,6'-dimethoxy]",zone of inhibition at 1000 µM,[1]; [3],15 mm
"CCN1C(=CC=Cc2sc3cc(C)ccc3[n+]2CC)Sc2cc(C)ccc21 [17,6,6'-dimethyl]",zone of inhibition at 1000 µM,[1]; [3],15 mm
"CCN1C(=CC=Cc2sc3cc(S(=O)(=O)O)ccc3[n+]2CC)Sc2cc(S(=O)(=O)[O-])ccc21 [17,6,6'-disulfo]",Diameter of Inhibition,[1]; [4],None
"CCN1C(=CC=Cc2sc3c(OC)cccc3[n+]2CC)Sc2c(OC)cccc21 [17,7,7'-dimethoxy]",zone of inhibition at 1000 µM,[1]; [3],14.5 mm
"CCN1C(=CC=Cc2sc3c(N(C)C)cccc3[n+]2CC)Sc2c(N(C)C)cccc21 [17,7,7'-dimethylamino]",zone of inhibition at 1000 µM,[1]; [3],14 mm
"CCN1C(=CC=Cc2sc3cc(I)ccc3[n+]2CC)Sc2cc(I)ccc21 [17, 6.6'-diiodo]",Diameter of Inhibition,[1]; [4],None
same,ER,[2],-.84
"CCN1C(=CC=Cc2sc3ccccc3[n+]2CC)Sc2ccccc21 [17, ClO4^-]",zone of inhibition at 1000 µM,"[1]; K1, 72 h, Table IV, 10^-3 molar, three days, differing anions",19 mm
CCN1C(=Cc2sc3ccc4ccccc4c3[n+]2CC)Sc2ccc3ccccc3c21 [Dye 2],% Bound,Bacillus pumilus (K-1),31.8%
same,Activity Rating,[1],0
same,Diameter of Inhibition,"[1]; Table II, 10^-4 molar, 26° C., forty-eight hours",None
same,Diameter of Inhibition,"[1]; Table IX, 10^-3 M",None
same,Diameter of Inhibition,"[1]; Table IX, 10^-4 M",None
same,ER,[2],-1.60
same,reduction potential (ER),[2],-1.60 volts
CCN1C(=CC=Cc2oc3ccc(S(=O)(=O)O)cc3[n+]2CC)Oc2ccc(S(=O)(=O)[O-])cc21 [Dye 6],% Bound,Bacillus pumilus (K-1),3.3%
same,Activity Rating,[1],0
same,Diameter of Inhibition,"[1]; Table IX, 10^-3 M",None
same,reduction potential (ER),[2],-1.27 volts
CCN1C(=CC=Cc2oc3cc(S(=O)(=O)O)ccc3[n+]2CC)Oc2cc(S(=O)(=O)[O-])ccc21 [Dye 8],% Bound,Bacillus pumilus (K-1),2.6%
same,Activity Rating,[1],0
same,Diameter of Inhibition,"[1]; Table IX, 10^-3 M",None
same,reduction potential (ER),[2],-1.26 volts
CCN1C(=CC=Cc2oc3cc(Cl)ccc3[n+]2CC)Oc2cc(Cl)ccc21 [Dye 9],% Bound,Bacillus pumilus (K-1),95.1%
same,Activity Rating,[1],71
same,zone of inhibition at 1000 µM,"[1]; K1, Table IX, 10^-3 M",30.5 mm
same,ER,[2],-1.18
same,reduction potential (ER),[2],-1.18 volts
